Source: US11407740B2 (priority 2018, dated 2022)
In brackets after ≈: the same amount, converted by molar mass.

test system: E. coli; test: Bacterial susceptibility testing, MIC by broth microdilution (CLSI); conditions: Escherichia coli, read-out: E. coli MIC, broth microdilution, 35° C., 18-24 h

Row | SMILES | MIC [µg/mL]
1 | C[C@@H](CC#N)NCC(Cc1nc[nH]c(=O)c1O)c1ccc(C#Cc2ccc(CN3CCOCC3)cc2)cc1 (single isomer, unassigned) [Compound 98] | < 1
2 | C[C@@H](CC#N)NCC(Cc1ncnc(O)c1O)c1ccc(C#Cc2ccc(CN3CCOCC3)cc2)cc1 (single isomer, unassigned) [Compound 99] | < 1
3 | C[C@H](CC#N)NCC(Cc1ncnc(O)c1O)c1ccc(C#Cc2ccc(CN3CCOCC3)cc2)cc1 (single isomer, unassigned) [Compound 100] | < 1
4 | O=c1[nH]cnc(C[C@@H](CNCC(F)F)c2ccc(C#Cc3ccc(CN4CCOCC4)cc3)cc2)c1O (single isomer, unassigned) [Compound 116] | 1 to 8 (≈ 1.97 to 15.7 µM)
5 | O=c1[nH]cnc(C[C@H](CNCC(F)F)c2ccc(C#Cc3ccc(CN4CCOCC4)cc3)cc2)c1O (single isomer, unassigned) [Compound 117] | < 1
6 | O=c1[nH]cnc(CC(CN[C@@H]2CCOC2)c2ccc(C#Cc3ccc(CN4CCOCC4)cc3)cc2)c1O (single isomer, unassigned) [Compound 162] | 1 to 8 (≈ 1.94 to 15.5 µM)
7 | C[C@H](CO)NCC(Cc1nc[nH]c(=O)c1O)c1ccc(C#Cc2ccc(CN3CCOCC3)cc2)cc1 (single isomer, unassigned) [Compound 170] | 1 to 8 (≈ 1.99 to 15.9 µM)
8 | C[C@@H](CF)NCC(Cc1nc[nH]c(=O)c1O)c1ccc(C#Cc2ccc(CNC3CCS(=O)(=O)C3)cc2)cc1 (single isomer, unassigned) [Compound 178] | 1 to 8 (≈ 1.81 to 14.5 µM)
9 | CC(=O)N1CC[C@H](NCC(Cc2nc[nH]c(=O)c2O)c2ccc(C#Cc3ccc(CN4CCOCC4)cc3)cc2)C1 (single isomer, unassigned) [Compound 182] | 1 to 8 (≈ 1.8 to 14.4 µM)
10 | O=c1[nH]cnc(CC(CN[C@@H]2CCS(=O)(=O)C2)c2ccc(C#Cc3ccc(CN4CCOCC4)cc3)cc2)c1O (single isomer, unassigned) [Compound 186] | < 1
11 | O=c1[nH]cnc(CC(CN[C@H]2CCS(=O)(=O)C2)c2ccc(C#Cc3ccc(CN4CCOCC4)cc3)cc2)c1O (single isomer, unassigned) [Compound 188] | < 1
12 | O=c1[nH]cnc(C[C@@H](CN2CC(F)C2)c2ccc(C#Cc3ccc(CN4CCOCC4)cc3)cc2)c1O (single isomer, unassigned) [Compound 215] | < 1
13 | O=c1[nH]cnc(C[C@H](CN2CC(F)C2)c2ccc(C#Cc3ccc(CN4CCOCC4)cc3)cc2)c1O (single isomer, unassigned) [Compound 216] | < 1
14 | COC1CN(Cc2ccc(C#Cc3ccc([C@@H](CO)Cc4nc[nH]c(=O)c4O)cc3)cc2)C1 (single isomer, unassigned) [Compound 217] | < 1
15 | COC1CN(Cc2ccc(C#Cc3ccc([C@H](Cc4nc[nH]c(=O)c4O)CN4CC(C#N)C4)cc3)cc2)C1 (single isomer, unassigned) [Compound 218] | < 1
16 | COC1CN(Cc2ccc(C#Cc3ccc([C@@H](Cc4nc[nH]c(=O)c4O)CN(C)C4CC4)cc3)cc2)C1 (single isomer, unassigned) [Compound 219] | < 1
17 | COC1CN(Cc2ccc(C#Cc3ccc([C@H](Cc4nc[nH]c(=O)c4O)CN(C)C4CC4)cc3)cc2)C1 (single isomer, unassigned) [Compound 220] | < 1
18 | COC1CN(Cc2ccc(C#Cc3ccc([C@](C)(CNC4CC4)Cc4nc[nH]c(=O)c4O)cc3)cc2)C1 (single isomer, unassigned) [Compound 227] | 1 to 8 (≈ 2.01 to 16 µM)
19 | COC1CN(Cc2ccc(C#Cc3ccc([C@@](C)(CNC4CC4)Cc4nc[nH]c(=O)c4O)cc3)cc2)C1 (single isomer, unassigned) [Compound 228] | < 1
20 | O=c1[nH]cnc(C[C@@H](CN2CC(O)C2)c2ccc(C#Cc3ccc(CN4CCOCC4)cc3)cc2)c1O (single isomer, unassigned) [Compound 229] | 1 to 8 (≈ 2 to 16 µM)
21 | O=c1[nH]cnc(C[C@H](CN2CC(O)C2)c2ccc(C#Cc3ccc(CN4CCOCC4)cc3)cc2)c1O (single isomer, unassigned) [Compound 230] | < 1
22 | N#CC1CN(C[C@H](Cc2nc[nH]c(=O)c2O)c2ccc(C#Cc3ccc(CN4CC[C@H](C#N)C4)cc3)cc2)C1 (single isomer, unassigned) [Compound 235] | < 1

Row | SMILES | MIC [µg/mL]
23 | N#CC1CN(C[C@@H](Cc2nc[nH]c(=O)c2O)c2ccc(C#Cc3ccc(CN4CC[C@H](C#N)C4)cc3)cc2)C1 (single isomer, unassigned) [Compound 236] | < 1
24 | O=c1[nH]cnc(C[C@H](CNCCCF)c2ccc(C#Cc3ccc(CN4CCOCC4)cc3)cc2F)c1O (single isomer, unassigned) [Compound 237] | < 1
25 | COC1CN(Cc2ccc(C#Cc3ccc(C(CN[C@@H](C)CF)Cc4nc[nH]c(=O)c4O)c(F)c3)cc2)C1 (single isomer, unassigned) [Compound 238] | < 1
26 | C[C@@H](CF)NCC(Cc1nc[nH]c(=O)c1O)c1ccc(C#Cc2ccc(CN3CC4COCC4C3)cc2)cc1F (single isomer, unassigned) [Compound 239] | < 1
27 | O=c1[nH]cnc(C[C@H](CO)c2ccc(C#Cc3ccc(CN(CCO)[C@H]4CCOC4)cc3)cc2)c1O (single isomer, unassigned) [Compound 243] | < 1
28 | C[C@H](O)CNC[C@@H](Cc1nc[nH]c(=O)c1O)c1ccc(C#Cc2ccc(CN3CCOCC3)cc2)cc1 (single isomer, unassigned) [Compound 245] | < 1
29 | C[C@H](O)CNC[C@H](Cc1nc[nH]c(=O)c1O)c1ccc(C#Cc2ccc(CN3CCOCC3)cc2)cc1 (single isomer, unassigned) [Compound 246] | 1 to 8 (≈ 1.99 to 15.9 µM)
30 | C[C@@H](O)CNC[C@H](Cc1nc[nH]c(=O)c1O)c1ccc(C#Cc2ccc(CN3CCOCC3)cc2)cc1 (single isomer, unassigned) [Compound 247] | 1 to 8 (≈ 1.99 to 15.9 µM)
31 | C[C@@H](O)CNC[C@@H](Cc1nc[nH]c(=O)c1O)c1ccc(C#Cc2ccc(CN3CCOCC3)cc2)cc1 (single isomer, unassigned) [Compound 248] | < 1
32 | COC1CN(Cc2ccc(C#Cc3ccc([C@H](CNC4(C)CC4)Cc4nc[nH]c(=O)c4O)cc3)cc2)C1 (single isomer, unassigned) [Compound 250] | < 1
33 | COC1CN(Cc2ccc(C#Cc3ccc([C@@H](CNC4(C)CC4)Cc4nc[nH]c(=O)c4O)cc3)cc2)C1 (single isomer, unassigned) [Compound 251] | < 1
34 | C[C@@H](CF)NCC(Cc1nc[nH]c(=O)c1O)c1ccc(C#Cc2ccc(C(O)CO)cc2)cc1 (single isomer, unassigned) [Compound 252] | < 1
35 | CS(=O)(=O)N1CC[C@@H](NCc2ccc(C#Cc3ccc(C(CO)Cc4nc[nH]c(=O)c4O)cc3)cc2)C1 (single isomer, unassigned) [Compound 254] | < 1
36 | O=c1[nH]cnc(C[C@H](CO)c2ccc(C#Cc3ccc(C4(O)CCNCC4)cc3)cc2)c1O (single isomer, unassigned) [Compound 266] | 1 to 8 (≈ 2.24 to 18 µM)
37 | O=c1[nH]cnc(C[C@H](CO)c2ccc(C#Cc3ccc(CN(CCO)[C@@H]4CCOC4)cc3)cc2)c1O (single isomer, unassigned) [Compound 269] | 1 to 8 (≈ 2.04 to 16.3 µM)
38 | O=c1[nH]cnc(C[C@H](CO)c2ccc(C#Cc3ccc(C(O)CO)cc3)cc2)c1O (single isomer, unassigned) [Compound 270] | 1 to 8 (≈ 2.46 to 19.7 µM)
39 | O=c1[nH]cnc(C[C@H](CO)c2ccc(C#Cc3ccc(CN4CC5(CCO5)C4)cc3)cc2F)c1O (single isomer, unassigned) [Compound 273] | < 1
40 | O=c1[nH]cnc(C[C@H](CN2CC(O)C2)c2ccc(C#Cc3ccc(CN4CCOCC4)cc3F)cc2)c1O (single isomer, unassigned) [Compound 275] | < 1
41 | O=c1[nH]cnc(C[C@H](CN2CC(O)C2)c2ccc(C#Cc3ccc(CN4CCOCC4)c(F)c3)cc2)c1O (single isomer, unassigned) [Compound 276] | 1 to 8 (≈ 1.93 to 15.4 µM)
42 | N#CC1CN(Cc2ccc(C#Cc3ccc([C@@H](CNCC(F)F)Cc4nc[nH]c(=O)c4O)c(F)c3)cc2)C1 (single isomer, unassigned) [Compound 279] | < 1
43 | C[C@H](CF)NCC(Cc1nc[nH]c(=O)c1O)c1ccc(C#Cc2ccc(CN3CCOCC3)cc2)cc1F (single isomer, unassigned) [Compound 280] | < 1

same assay, conditions: broth microdilution, 35° C., 18-24 h

Row | SMILES | E. coli MIC
44 | CO[C@@H]1CCN(Cc2ccc(C#Cc3ccc(C(CNCC(C)F)Cc4nc[nH]c(=O)c4O)cc3)cc2)C1 (single isomer, unassigned) [Compound 136] | D (D: >32 μg/mL)
45 | CO[C@@H]1CCN(Cc2ccc(C#Cc3ccc(C(CNCC(C)F)Cc4nc[nH]c(=O)c4O)cc3)cc2)C1 (single isomer, unassigned) [Compound 137] | B (B: >1 μg/mL to ≤8.0 μg/mL)
46 | O=c1[nH]cnc(CC(CN[C@@H]2CCOC2)c2ccc(C#Cc3ccc(CN4CCOCC4)cc3)cc2)c1O (single isomer, unassigned) [Compound 163] | A (A: ≤1 μg/mL)
47 | C[C@@H](CO)NCC(Cc1nc[nH]c(=O)c1O)c1ccc(C#Cc2ccc(CN3CCOCC3)cc2)cc1 (single isomer, unassigned) [Compound 168] | B (B: >1 μg/mL to ≤8.0 μg/mL)
48 | C[C@@H](CO)NCC(Cc1nc[nH]c(=O)c1O)c1ccc(C#Cc2ccc(CN3CCOCC3)cc2)cc1 (single isomer, unassigned) [Compound 169] | A (A: ≤1 μg/mL)
49 | C[C@H](CO)NCC(Cc1nc[nH]c(=O)c1O)c1ccc(C#Cc2ccc(CN3CCOCC3)cc2)cc1 (single isomer, unassigned) [Compound 171] | A (A: ≤1 μg/mL)
50 | CC(=O)N1CC[C@H](NCC(Cc2nc[nH]c(=O)c2O)c2ccc(C#Cc3ccc(CN4CCOCC4)cc3)cc2)C1 (single isomer, unassigned) [Compound 183] | A (A: ≤1 μg/mL)
51 | CC(=O)N1CC[C@@H](NCc2ccc(C#Cc3ccc(C(CO)Cc4nc[nH]c(=O)c4O)cc3)cc2)C1 (single isomer, unassigned) [Compound 233] | B (B: >1 μg/mL to ≤8.0 μg/mL)
52 | CC(=O)N1CC[C@@H](NCc2ccc(C#Cc3ccc(C(CO)Cc4nc[nH]c(=O)c4O)cc3)cc2)C1 (single isomer, unassigned) [Compound 234] | A (A: ≤1 μg/mL)
